In ChEMBL document CHEMBL1201862, “PubChem BioAssay data set” (2004):
Active and inactive are the calls of the source.

Tests used:
[1] = cells; type: functional, cell-based
[2] = cells; type: functional, cell-based; remark: listed apart in the source
[3] = molecular target: Paired box protein Pax-8 (Homo sapiens, UniProt Q06710); test: PAX8 transcriptional activity inhibition in RMG-I – RMG-I cells, luciferase, cherry-pick, dose response (AID 687027); type: functional, cell-based;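 also: luciferase reporter driven by Pax8 target thyroperoxidase promoter measured by SteadyGlo luminescence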
[4] = OVCAR8 cell viability loss – plate reader, dry powder samples, PAX8 project, dose response (AID 743197); type: functional, cell-based; settings: OVCAR-8
[5] = P. falciparum Dd2 growth inhibitors, dose response, SYBR Green, cherry-picked samples (AID 1159567); type: functional, cell-based
[6] = microbe, parasite or virus in culture; type: functional; settings: Mycobacterium tuberculosis
[7] = molecular target: T1, Aminopeptidase N (Plasmodium falciparum FcB1/Columbia, UniProt O96935); test: malaria alanyl aminopeptidase activity blockers – biochemical, fluorogenic H-Leu-NHMec substrate, 1536-well (AID 1445); set-up: species or system Plasmodium falciparum 3D7, 3D7
T1 sequence (O96935 whole entry): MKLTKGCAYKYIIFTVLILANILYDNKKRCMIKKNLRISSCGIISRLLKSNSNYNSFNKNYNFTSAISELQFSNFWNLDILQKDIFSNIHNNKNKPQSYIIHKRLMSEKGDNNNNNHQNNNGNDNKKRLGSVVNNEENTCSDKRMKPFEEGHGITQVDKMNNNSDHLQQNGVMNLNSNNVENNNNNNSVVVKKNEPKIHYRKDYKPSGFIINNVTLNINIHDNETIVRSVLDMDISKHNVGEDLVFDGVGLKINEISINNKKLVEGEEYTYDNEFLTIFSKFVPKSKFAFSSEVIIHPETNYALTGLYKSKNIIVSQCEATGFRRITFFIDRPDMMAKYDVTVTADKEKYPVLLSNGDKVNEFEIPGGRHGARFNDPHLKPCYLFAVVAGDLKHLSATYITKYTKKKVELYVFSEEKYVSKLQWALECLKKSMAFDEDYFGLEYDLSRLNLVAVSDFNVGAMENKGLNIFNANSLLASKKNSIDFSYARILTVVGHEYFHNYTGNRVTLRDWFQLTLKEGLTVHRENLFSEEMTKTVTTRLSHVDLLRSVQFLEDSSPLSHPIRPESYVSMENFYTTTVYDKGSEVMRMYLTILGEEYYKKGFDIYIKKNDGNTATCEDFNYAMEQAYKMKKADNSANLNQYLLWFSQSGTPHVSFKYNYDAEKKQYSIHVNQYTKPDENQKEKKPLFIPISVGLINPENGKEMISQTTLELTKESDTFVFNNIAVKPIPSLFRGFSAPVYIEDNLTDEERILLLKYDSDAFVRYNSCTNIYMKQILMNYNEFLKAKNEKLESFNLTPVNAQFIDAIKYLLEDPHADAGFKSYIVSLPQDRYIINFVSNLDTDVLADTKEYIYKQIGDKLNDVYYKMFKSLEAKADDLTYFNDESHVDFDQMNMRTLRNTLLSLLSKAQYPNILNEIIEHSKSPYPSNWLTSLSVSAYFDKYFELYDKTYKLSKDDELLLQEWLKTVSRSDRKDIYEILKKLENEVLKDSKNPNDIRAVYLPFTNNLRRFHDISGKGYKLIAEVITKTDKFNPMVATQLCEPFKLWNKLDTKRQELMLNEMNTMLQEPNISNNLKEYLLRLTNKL

[8] = molecular target: Voltage-dependent T-type calcium channel subunit alpha-1H (Homo sapiens, UniProt O95180); type: functional;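 also: channel activity triggered by adding a high calcium stimulation buffer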
[9] = NIH3T3 cell viability loss – ATP luminescence, mouse fibroblasts, counter-screen, dose response (AID 2010); type: functional, cell-based;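 also: cells exposed to compound for about 90 hours before reading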
[10] = Trypanosoma cruzi growth suppression in host cells – NIH3T3 host cells, beta-gal luminescence, confirmation (AID 2044); type: functional, cell-based;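 also: intracellular parasites grown in NIH/3T3 mouse fibroblasts as host cells; luminescent beta-galactosidase reporter signal from transgenic T. cruzi replicating inside host cells; inhibitors lower the luminescence signal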
[11] = molecular target: FAD-linked sulfhydryl oxidase ALR (Homo sapiens, UniProt P55789); test: ALR-catalysed DTT oxidation blockers – biochemical, H2O2 detection, luminescence, cherry-pick, dose response (AID 493248)
[12] = OVCAR-3 cell viability loss – plate reader, dry powder samples, PAX8 inhibitor project, dose response (AID 743044); type: functional, cell-based
[13] = Luminescence Cell-Based Dose Retest to Confirm Inhibitors of Cancer Stem Cells. [Related pubchem assays (depositor defined):AID2717, AID2721]; type: functional, Homo sapiens; settings: Homo sapiens
[14] = molecular target: T2, Heat shock factor protein 1 (Mus musculus, UniProt P38532); test: enhancement of HSF1-driven luciferase signal – cell-based, NIH3T3, luminescence, dose retest, confirmation (AID 435004); type: functional;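 also: stress induced by proteasome inhibitor MG132 added 30 min after compound; luciferase reporter driven by HSF1 response element in NIH3T3 cells; actives raise luminescence as potentiators of the MG132 stress response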
T2 sequence (P38532 whole entry): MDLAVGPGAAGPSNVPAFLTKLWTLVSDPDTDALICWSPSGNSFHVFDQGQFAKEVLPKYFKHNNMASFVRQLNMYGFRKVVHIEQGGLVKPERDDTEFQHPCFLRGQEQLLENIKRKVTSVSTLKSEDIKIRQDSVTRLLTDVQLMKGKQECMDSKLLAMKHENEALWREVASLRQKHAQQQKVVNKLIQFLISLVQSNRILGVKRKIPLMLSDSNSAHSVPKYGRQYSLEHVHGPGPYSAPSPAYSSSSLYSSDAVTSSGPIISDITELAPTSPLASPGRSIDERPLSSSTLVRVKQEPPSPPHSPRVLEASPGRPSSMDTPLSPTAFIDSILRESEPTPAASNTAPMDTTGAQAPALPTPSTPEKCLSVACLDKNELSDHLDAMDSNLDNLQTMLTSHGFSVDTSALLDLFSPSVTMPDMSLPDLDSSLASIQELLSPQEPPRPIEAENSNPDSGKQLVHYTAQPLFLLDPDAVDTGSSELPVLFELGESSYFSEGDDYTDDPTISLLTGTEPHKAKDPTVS

[15] = molecular target: T3, Calpain-2 catalytic subunit (Sus scrofa, UniProt P43367); test: m-calpain protease blockers, concentration series – biochemical, fluorogenic peptide substrate, dose response (AID 1420); type: functional
T3 sequence (P43367 whole entry): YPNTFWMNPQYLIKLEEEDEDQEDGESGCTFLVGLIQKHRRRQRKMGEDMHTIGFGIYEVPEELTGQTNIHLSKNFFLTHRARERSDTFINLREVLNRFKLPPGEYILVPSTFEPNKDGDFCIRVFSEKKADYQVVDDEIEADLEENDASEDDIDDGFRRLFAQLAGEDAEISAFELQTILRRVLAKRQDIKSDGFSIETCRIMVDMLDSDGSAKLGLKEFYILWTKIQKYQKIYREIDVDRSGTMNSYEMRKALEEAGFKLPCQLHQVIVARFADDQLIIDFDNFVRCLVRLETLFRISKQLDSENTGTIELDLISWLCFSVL

[16] = viability of PTEN-deleted HCT116 cells – cell-based, HCT116 PTEN knockout, dose response (AID 1047); type: functional;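 also: HCT116 colon tumor cells with PTEN knocked out; cells exposed to compound for 60 hours before readout; potency for loss of cell viability measured by luminescence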
[17] = viability of HCT116 lacking mutant beta-catenin – cell-based, human colon tumor, dose response (AID 1045); type: functional;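 also: HCT116 colon tumor cells with beta catenin knocked out; cells exposed to compound for 60 hours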
[18] = tested on: INS1; test: INS-1E survival protection against cytokine death – cell-based, luminescence, retest, dose response (AID 449756); type: functional; settings: Rattus norvegicus;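 also: cell death triggered by IL-1 beta plus TNF-alpha plus IFN-gamma mixture; protective hits raise ATP signal compared with cytokine alone wells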

Chain of Voltage-dependent T-type calcium channel subunit alpha-1H (O95180 whole entry): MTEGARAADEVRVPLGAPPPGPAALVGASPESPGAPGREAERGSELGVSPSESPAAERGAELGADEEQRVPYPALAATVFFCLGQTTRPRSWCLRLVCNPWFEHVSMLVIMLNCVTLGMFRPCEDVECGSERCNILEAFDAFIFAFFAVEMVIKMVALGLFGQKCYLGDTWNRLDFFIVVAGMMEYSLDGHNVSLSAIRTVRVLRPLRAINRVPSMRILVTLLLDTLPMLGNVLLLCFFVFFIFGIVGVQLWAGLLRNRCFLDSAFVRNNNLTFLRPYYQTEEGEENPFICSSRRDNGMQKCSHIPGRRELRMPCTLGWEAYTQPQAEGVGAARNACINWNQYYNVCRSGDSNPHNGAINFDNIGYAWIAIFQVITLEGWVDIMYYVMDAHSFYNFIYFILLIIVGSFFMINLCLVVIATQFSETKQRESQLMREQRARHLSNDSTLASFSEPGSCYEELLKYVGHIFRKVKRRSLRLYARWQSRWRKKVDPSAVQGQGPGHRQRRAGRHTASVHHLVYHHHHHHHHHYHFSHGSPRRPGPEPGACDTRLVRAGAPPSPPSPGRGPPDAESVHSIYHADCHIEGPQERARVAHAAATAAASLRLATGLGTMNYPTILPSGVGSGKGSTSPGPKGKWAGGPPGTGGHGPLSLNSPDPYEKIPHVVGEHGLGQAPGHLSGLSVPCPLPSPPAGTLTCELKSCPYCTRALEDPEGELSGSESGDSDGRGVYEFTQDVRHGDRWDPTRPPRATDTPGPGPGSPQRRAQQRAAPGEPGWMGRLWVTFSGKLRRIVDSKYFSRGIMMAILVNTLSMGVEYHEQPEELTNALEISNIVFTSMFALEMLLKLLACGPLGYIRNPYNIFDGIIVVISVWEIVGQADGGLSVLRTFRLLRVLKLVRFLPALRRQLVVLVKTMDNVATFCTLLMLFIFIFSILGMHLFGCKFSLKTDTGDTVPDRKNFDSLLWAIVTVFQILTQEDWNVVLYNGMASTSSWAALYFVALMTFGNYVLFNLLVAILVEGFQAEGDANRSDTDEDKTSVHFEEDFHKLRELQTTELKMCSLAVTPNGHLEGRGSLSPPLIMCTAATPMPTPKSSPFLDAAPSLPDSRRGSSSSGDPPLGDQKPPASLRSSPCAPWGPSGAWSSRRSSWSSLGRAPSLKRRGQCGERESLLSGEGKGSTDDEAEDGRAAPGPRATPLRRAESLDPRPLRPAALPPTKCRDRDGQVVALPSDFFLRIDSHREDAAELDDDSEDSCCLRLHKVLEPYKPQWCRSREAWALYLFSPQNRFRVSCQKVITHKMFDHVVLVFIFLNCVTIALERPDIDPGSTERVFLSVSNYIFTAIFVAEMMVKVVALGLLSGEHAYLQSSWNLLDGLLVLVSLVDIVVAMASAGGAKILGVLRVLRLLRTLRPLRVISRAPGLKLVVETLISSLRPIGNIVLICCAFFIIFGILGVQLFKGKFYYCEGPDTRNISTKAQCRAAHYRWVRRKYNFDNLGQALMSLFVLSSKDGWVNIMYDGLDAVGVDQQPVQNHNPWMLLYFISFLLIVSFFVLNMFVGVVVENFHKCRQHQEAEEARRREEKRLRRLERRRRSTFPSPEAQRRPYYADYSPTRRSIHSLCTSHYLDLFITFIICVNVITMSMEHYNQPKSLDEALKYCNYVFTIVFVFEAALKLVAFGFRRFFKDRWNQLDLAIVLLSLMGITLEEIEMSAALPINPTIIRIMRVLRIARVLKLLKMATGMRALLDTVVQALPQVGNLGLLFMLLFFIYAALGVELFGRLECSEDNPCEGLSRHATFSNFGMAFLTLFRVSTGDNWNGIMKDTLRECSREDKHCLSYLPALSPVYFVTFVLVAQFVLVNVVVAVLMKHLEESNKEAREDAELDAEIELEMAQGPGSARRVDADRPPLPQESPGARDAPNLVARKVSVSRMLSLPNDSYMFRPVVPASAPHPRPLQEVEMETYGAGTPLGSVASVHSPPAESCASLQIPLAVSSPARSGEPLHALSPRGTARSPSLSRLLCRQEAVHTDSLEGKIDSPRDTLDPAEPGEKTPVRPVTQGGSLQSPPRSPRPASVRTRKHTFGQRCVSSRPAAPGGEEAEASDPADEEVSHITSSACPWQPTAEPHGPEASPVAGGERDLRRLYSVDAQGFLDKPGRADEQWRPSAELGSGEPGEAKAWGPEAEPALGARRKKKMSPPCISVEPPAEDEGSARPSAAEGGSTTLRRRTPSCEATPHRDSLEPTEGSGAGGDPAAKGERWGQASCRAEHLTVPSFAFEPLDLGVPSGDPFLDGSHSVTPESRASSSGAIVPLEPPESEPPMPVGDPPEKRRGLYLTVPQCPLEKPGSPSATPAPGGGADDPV
Chain of Paired box protein Pax-8 (Q06710 whole entry): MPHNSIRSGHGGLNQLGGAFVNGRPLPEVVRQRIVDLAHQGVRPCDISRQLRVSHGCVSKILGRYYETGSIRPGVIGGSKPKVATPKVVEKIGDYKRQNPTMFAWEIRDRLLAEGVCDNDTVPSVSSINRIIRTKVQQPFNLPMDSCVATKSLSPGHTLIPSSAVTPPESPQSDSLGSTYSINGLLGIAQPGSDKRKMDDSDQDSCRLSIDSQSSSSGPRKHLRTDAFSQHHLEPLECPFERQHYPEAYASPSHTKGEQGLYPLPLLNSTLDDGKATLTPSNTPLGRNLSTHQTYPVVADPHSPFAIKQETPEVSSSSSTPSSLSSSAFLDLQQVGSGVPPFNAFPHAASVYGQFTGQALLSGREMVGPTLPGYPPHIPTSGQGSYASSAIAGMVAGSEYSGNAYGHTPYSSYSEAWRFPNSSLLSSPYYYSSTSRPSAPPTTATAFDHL
Chain of FAD-linked sulfhydryl oxidase ALR (P55789 whole entry): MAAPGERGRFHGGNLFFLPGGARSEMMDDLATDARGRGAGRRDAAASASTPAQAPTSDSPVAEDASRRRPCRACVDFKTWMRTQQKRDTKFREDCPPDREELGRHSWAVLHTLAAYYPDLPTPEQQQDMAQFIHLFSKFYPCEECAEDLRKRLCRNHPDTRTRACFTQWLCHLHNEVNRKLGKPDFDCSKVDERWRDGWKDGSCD

With O=C(NC(=S)Nc1cccc([N+](=O)[O-])c1)c1ccco1 the EC50 [1] was > 350 µM (not active) and the EC50 [2] was > 350 µM (not active).
In the case of C[C@H](CO)N1C[C@H](C)[C@H](CN(C)S(=O)(=O)c2ccc(F)cc2)OCCCC[C@H](C)Oc2ccc(NC(=O)Nc3ccc(F)cc3)cc2C1=O, the AC50 [3] is reported as 7.09 µM (active) and the AC50 [4] is reported as > 70 µM (inactive).
With C[C@@H]1CN([C@H](C)CO)C(=O)c2c(c3ccccc3n2C)-c2ccccc2CO[C@H]1CN(C)S(=O)(=O)c1ccsc1 the AC50 [5] was 4.22 µM (active).
For Cc1nc(NCCc2ccccc2)c2oc3ccccc3c2n1, the CC50 [6] was 31.6 µM (active).
With Cc1ccc(C)c(CS(=O)(=O)c2cn(CC(=O)N3CCCCC3)c3ccccc23)c1 the IC50 [7] was 94.5 µM (active).
For Cc1nc(CS(=O)(=O)c2ccc(Cl)cc2)cc(Sc2ccccc2Cl)n1, the EC50 [8] was 4.3 µM (active).
For Cc1nn(Cc2ccc(Cl)cc2Cl)c(C)c1NC(=O)c1ccc(COc2cc(Cl)ccc2Cl)o1, the EC50 [9] was > 60 µM (not active), the EC50 [8] was 17.5 µM (active) and the EC50 [10] was 1.5 µM (active).
In the case of O=C(O)c1ccc(S(=O)(=O)Nc2ccc(O)c(Sc3nc4ccccc4s3)c2)cc1, the AC50 [11] is reported as 0.236 µM (active) and the IC50 [7] is reported as 104 µM (active).
For COc1ccc(C(=O)NCCCOC(=O)c2ccc(OC)cc2)cc1, the EC50 [1] was > 350 µM (not active) and the EC50 [2] was > 350 µM (not active).
With O=C(CSc1nc(O)c2c(C(F)(F)F)cc(-c3cccs3)nc2n1)NCc1ccco1 the IC50 [7] was 103 µM (active).
With O=C(c1ccc(Cl)cc1Cl)N1CCN(c2ccc(N3CCOCC3)nn2)CC1 the EC50 [1] was > 350 µM (not active) and the EC50 [2] was > 350 µM (not active).
In the case of C[C@@H]1CN([C@H](C)CO)C(=O)c2cc(NC(=O)Nc3ccccc3)ccc2O[C@@H](C)CCCCO[C@H]1CN(C)C(=O)Nc1ccc(C(F)(F)F)cc1, the AC50 [3] is reported as 10.8 µM (active), the AC50 [4] is reported as > 70 µM (inactive) and the AC50 [12] is reported as 46.2 µM (active).
For COc1cccc(C#Cc2ccc([C@@H]3[C@@H](C#N)N(C(=O)c4ccccn4)[C@H]3CO)cc2)c1, the AC50 [5] was 3.29 µM (active).
For CCCCc1cc(=O)oc2c(CN(CC)CC)c(O)c(Cl)cc12, the IC50 [7] was 41.5 µM (active).
For C[C@@H]1CN([C@H](C)CO)C(=O)c2cc(NC(=O)Nc3ccccc3)ccc2O[C@@H](C)CCCCO[C@@H]1CN(C)CC1CCCCC1, the AC50 [3] was 5.42 µM (active), the AC50 [4] was 53.5 µM (active) and the AC50 [12] was 34.3 µM (active).
In the case of CC(=O)c1cccc(N(C(=O)c2ccccn2)C(C(=O)NC2CCCCC2)c2ccccc2)c1 (configuration not stated), the EC50 [1] is reported as > 350 µM (not active) and the EC50 [2] is reported as > 350 µM (not active).
In the case of CCn1c(COc2cccc(C)c2)nc2ccccc21, the EC50 [8] is reported as 13 µM (active).
In the case of O=C(Nc1ccn(Cc2ccccc2F)n1)c1ccc(COc2ccc(Cl)cc2Cl)o1, the AC50 [13] is reported as 2.03 µM (active), the EC50 [8] is reported as 10.3 µM (active) and the EC50 [14] is reported as 20.8 µM (active).
For O=C(/C=C/c1cccnc1)c1cccc(O)c1, the CC50 [6] was 15.6 µM (active).
In the case of COc1ccc(/C=N/Nc2ncnc3sc4c(c23)CCCC4)cc1OC, the EC50 [1] is reported as > 350 µM (not active) and the EC50 [2] is reported as > 350 µM (not active).
With Cc1ccc(C)c(OCCCC(=O)Nc2nccs2)c1 the IC50 [15] was > 50 µM (not active) and the EC50 [8] was 3.06 µM (active).
In the case of CCOC(=O)CCCc1ccc(/C(C)=N/NC(N)=S)cc1, the CC50 [6] is reported as > 40 µM (active).
For COc1ccc(C#Cc2ccc3c(c2)[C@@H]2[C@@H](CCN2C(=O)C2CCCC2)[C@H](CO)N3)cc1, the AC50 [5] was 3.97 µM (active).
For CC(=O)Nc1ccc(S(=O)(=O)Oc2cccc(/C=N/NC3=NC(=O)C(CC(=O)O)S3)c2)cc1 (configuration not stated), the IC50 [7] was 52.8 µM (active).
For CCN1CCN(c2ncnc3ccc(Br)cc23)CC1, the EC50 [1] was > 350 µM (not active) and the EC50 [2] was > 350 µM (not active).
For Cc1nc(Nc2ccc(Cl)c(Cl)c2)sc1C(=O)Nc1ccccc1, the EC50 [16] was 19.8 µM (active), the CC50 [6] was 27.2 µM (active) and the EC50 [17] was 21.9 µM (active). For the same compound, the AC50 [18] was 7.01 µM (active).
In the case of CCCOc1ccc(C(=O)c2nc3c(n2O)CCCCC3)cc1, the CC50 [6] is reported as > 40 µM (active).
For Cc1ccc(S(=O)(=O)NC2=NC(=O)/C(=C\c3ccco3)S2)cc1, the IC50 [7] was 94 µM (active).
In the case of C[C@@H]1CCCCO[C@@H](CN(C)Cc2ccc(Cl)c(Cl)c2)[C@H](C)CN([C@H](C)CO)C(=O)c2cc(NS(=O)(=O)c3ccc(F)cc3)ccc2O1, the AC50 [3] is reported as 8.2 µM (active) and the AC50 [4] is reported as > 70 µM (inactive).
In the case of O=S(=O)(Nc1nc2ccccc2nc1Nc1ccc2c(c1)OCCO2)c1cccs1, the EC50 [8] is reported as 9.65 µM (active).
With CNNC(=O)C(C)NC(=O)c1ccc(Br)cc1 (configuration not stated) the EC50 [1] was > 350 µM (not active) and the EC50 [2] was > 350 µM (not active).
For Cc1ccc(-c2nc(C[S+]([O-])CC(=O)NCc3ccc(Cl)cc3)c(C)o2)cc1 (configuration not stated), the EC50 [8] was 2 µM (active).
With CN(CC(=O)Nc1ccc(F)c(F)c1F)C(=O)/C=C/c1ccc(Cl)cc1 the EC50 [1] was 155 µM (active) and the EC50 [2] was > 350 µM (not active).
For O=C(NC1CCN(Cc2ccccc2)CC1)c1cccc(S(=O)(=O)Nc2ccc(SC(F)F)cc2)c1, the CC50 [6] was 32.7 µM (active).
For COc1ccc(-c2cn3nc(SCC(=O)NCC4CCCO4)ccc3n2)cc1 (configuration not stated), the EC50 [1] was 9.41 µM (active) and the EC50 [2] was > 350 µM (not active).
In the case of CC(=O)N1CCN(c2ccc(Oc3ccc([N+](=O)[O-])c(C(F)(F)F)c3)cc2)CC1, the CC50 [6] is reported as > 40 µM (active) and the AC50 [18] is reported as 5.74 µM (active).
With O=C(O)c1ccccc1-c1nc(-c2ccccc2)c(-c2ccccc2)[nH]1 the IC50 [7] was 46.6 µM (active).
